Tested on: bacterial strain (mutant bacterial colonies)
Assay: Ames test of epoxy pre-polymers (mutagenic potential)
Format: cell-based
Conditions: number of mutant bacterial colonies from a given strain exposed to the compound, non-toxic at induction ratio of 2 or less
Experimental: In order to determine the mutagenic potential of the epoxy pre-polymers, an Ames test was carried out on different Mn and EEW epoxy resins. The results are expressed in induction levels, that is, the number of mutant bacterial colonies obtained from a given strain exposed to the compound. The resin is considered to be non-toxic in the case of an induction ratio of 2 or less.

Work on `C1OC1COC1COC2C(OCC3CO3)COC12` (stereo not shown) [IDGE 1* fraction, isosorbide diglycidylether] yielded an Induction ratio of 20.2.
